Source: patent publication US20180214411A1, “COMPOSITION COMPRISING SATIETY-INDUCING PARTICLES” (PERORA GMBH, priority 2015, published 2018)

Test: tryptophan release / dissolution in fasted-state simulated gastric fluid (FaSSGF)
Type: physicochemical
Conditions: 30 mg powder in 22 mL FaSSGF, 37° C., agitated
Description: 30 mg of tryptophan powder were suspended in 22 mL FaSSGF at 37° C. and agitated (shaker ST5 from CAT, Germany). Aliquots were removed at time intervals of 5 min, and tryptophan concentration was quantified using absorption measurement at a wavelength of 280 nm in a NanoDrop® 2000 device (Thermo Scientific, USA).

## N[C@@H](Cc1c[nH]c2ccccc12)C(=O)O [tryptophan powder, L-Tryptophan]
  time after which tryptophan was quantitatively dissolved: 10 min
